Results published in patent publication US11981658B2, “Substituted aminopyridine compounds as EGFR inhibitors” (YUHAN CORPORATION, priority 2021, dated 2024).
Like-named read-outs stand apart in the source and are kept apart here.

Experiments:
[1] = target: EGFR Del19/T790M/C797S (Homo sapiens, UniProt P00533, C797S/DEL746-750/T790M); test: Biochemical EGFR kinase inhibition assay (Lance Ultra TR-FRET), triple mutant del19/T790M/C797S
Procedure, shortened: (§1)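 In this biochemical assay, phosphorylation after a one-hour room-temperature reaction was detected with europium-labelled anti-phosphopeptide antibody at 2 nM final concentration.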

[2] = target: EGFR wildtype (WT) (Homo sapiens, UniProt P00533); test: Biochemical EGFR kinase inhibition assay (Lance Ultra TR-FRET), wildtype
Procedure, shortened: as §1

[3] = target: EGFR Del19/C797S (Homo sapiens, UniProt P00533, C797S/DEL746-750); test: Biochemical EGFR kinase inhibition assay (Lance Ultra TR-FRET), double mutant del19/C797S
Procedure, shortened: as §1

[4] = target: EGFR L858R/T790M/C797S (Homo sapiens, UniProt P00533, C797S/L858R/T790M); test: Biochemical EGFR kinase inhibition assay (Lance Ultra TR-FRET), triple mutant L858R/T790M/C797S
Procedure, shortened: as §1

[5] = target: EGFR L858R/C797S (Homo sapiens, UniProt P00533, C797S/L858R); test: Biochemical EGFR kinase inhibition assay (Lance Ultra TR-FRET), double mutant L858R/C797S
Procedure, shortened: as §1

[6] = ATP at Km, read-out: IC50 Del19/T790M/C797S (nM), Km ATP
[7] = IC50 Del19/T790M/C797S (nM), 100 μM ATP
[8] = ATP at Km, read-out: IC50 WT (nM), Km ATP
[9] = ATP at Km, read-out: IC50 Del19/C797S (nM), Km ATP
[10] = IC50 Del19/C797S (nM), 100 μM ATP
[11] = ATP at Km, read-out: IC50 L858R/T790M/C797S (nM), Km ATP
[12] = IC50 L858R/T790M/C797S (nM), 100 μM ATP
[13] = ATP at Km, read-out: IC50 L858R/C797S (nM), Km ATP
[14] = IC50 L858R/C797S (nM), 100 μM ATP

Chain of EGFR L858R/C797S (P00533 25-1210 C797S/L858R): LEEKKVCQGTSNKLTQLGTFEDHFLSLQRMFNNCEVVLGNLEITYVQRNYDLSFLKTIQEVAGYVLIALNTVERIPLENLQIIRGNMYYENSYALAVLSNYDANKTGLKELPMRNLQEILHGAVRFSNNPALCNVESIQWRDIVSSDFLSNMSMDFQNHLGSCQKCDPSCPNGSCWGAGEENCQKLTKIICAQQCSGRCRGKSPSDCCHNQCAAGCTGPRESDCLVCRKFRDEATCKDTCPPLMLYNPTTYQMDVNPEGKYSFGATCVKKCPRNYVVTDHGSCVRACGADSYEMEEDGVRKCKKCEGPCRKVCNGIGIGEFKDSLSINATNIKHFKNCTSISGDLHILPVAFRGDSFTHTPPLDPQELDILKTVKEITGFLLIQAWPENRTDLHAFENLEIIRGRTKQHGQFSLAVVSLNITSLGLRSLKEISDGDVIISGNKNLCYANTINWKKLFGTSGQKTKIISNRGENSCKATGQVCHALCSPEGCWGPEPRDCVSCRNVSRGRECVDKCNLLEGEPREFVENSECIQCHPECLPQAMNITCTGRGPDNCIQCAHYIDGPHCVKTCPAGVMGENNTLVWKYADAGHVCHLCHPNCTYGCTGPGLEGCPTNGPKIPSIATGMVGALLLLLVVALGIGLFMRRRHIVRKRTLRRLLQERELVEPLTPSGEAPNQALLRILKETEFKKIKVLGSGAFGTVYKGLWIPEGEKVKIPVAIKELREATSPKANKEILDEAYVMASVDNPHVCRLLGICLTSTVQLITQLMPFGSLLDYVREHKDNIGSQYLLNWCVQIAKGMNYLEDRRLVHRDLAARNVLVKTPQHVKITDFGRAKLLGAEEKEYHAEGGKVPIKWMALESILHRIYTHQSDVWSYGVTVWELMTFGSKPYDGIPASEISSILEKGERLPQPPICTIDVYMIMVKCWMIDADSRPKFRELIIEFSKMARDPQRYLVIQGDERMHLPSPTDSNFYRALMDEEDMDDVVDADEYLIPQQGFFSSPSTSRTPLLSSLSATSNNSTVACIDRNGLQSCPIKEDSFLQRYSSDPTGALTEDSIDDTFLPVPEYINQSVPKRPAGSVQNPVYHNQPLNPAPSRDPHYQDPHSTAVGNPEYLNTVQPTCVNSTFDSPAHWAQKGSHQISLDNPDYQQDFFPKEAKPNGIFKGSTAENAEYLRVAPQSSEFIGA
Chain of EGFR wildtype (WT) (P00533 25-1210): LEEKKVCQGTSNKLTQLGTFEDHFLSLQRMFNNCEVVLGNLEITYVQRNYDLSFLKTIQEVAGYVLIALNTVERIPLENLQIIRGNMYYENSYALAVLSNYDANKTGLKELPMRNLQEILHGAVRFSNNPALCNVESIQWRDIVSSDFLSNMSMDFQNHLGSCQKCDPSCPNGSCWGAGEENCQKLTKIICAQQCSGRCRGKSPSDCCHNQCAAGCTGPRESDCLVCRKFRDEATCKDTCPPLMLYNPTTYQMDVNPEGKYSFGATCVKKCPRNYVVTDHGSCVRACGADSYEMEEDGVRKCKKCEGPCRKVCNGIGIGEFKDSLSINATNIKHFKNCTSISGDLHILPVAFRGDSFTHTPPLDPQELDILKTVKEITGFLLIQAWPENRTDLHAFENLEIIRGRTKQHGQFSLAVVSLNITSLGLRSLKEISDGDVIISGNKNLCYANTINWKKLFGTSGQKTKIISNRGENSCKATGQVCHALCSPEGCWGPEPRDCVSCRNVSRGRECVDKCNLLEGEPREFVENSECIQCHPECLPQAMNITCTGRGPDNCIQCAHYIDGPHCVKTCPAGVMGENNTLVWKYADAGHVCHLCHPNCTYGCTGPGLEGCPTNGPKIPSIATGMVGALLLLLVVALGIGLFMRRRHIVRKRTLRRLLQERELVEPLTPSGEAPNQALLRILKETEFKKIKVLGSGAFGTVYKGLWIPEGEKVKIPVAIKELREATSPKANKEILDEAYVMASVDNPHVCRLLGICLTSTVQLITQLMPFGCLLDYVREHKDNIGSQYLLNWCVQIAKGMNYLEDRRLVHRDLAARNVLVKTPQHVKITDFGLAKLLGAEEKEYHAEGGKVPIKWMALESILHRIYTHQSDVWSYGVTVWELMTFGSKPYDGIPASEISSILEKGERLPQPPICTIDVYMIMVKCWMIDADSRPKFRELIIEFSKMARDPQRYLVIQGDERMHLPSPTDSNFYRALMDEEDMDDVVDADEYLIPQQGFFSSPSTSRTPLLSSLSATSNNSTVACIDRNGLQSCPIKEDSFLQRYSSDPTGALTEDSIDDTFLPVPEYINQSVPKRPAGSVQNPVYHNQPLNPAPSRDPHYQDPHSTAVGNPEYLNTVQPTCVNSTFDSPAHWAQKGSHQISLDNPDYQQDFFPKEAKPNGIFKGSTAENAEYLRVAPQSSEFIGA
Chain of EGFR L858R/T790M/C797S (P00533 25-1210 T790M/C797S/L858R): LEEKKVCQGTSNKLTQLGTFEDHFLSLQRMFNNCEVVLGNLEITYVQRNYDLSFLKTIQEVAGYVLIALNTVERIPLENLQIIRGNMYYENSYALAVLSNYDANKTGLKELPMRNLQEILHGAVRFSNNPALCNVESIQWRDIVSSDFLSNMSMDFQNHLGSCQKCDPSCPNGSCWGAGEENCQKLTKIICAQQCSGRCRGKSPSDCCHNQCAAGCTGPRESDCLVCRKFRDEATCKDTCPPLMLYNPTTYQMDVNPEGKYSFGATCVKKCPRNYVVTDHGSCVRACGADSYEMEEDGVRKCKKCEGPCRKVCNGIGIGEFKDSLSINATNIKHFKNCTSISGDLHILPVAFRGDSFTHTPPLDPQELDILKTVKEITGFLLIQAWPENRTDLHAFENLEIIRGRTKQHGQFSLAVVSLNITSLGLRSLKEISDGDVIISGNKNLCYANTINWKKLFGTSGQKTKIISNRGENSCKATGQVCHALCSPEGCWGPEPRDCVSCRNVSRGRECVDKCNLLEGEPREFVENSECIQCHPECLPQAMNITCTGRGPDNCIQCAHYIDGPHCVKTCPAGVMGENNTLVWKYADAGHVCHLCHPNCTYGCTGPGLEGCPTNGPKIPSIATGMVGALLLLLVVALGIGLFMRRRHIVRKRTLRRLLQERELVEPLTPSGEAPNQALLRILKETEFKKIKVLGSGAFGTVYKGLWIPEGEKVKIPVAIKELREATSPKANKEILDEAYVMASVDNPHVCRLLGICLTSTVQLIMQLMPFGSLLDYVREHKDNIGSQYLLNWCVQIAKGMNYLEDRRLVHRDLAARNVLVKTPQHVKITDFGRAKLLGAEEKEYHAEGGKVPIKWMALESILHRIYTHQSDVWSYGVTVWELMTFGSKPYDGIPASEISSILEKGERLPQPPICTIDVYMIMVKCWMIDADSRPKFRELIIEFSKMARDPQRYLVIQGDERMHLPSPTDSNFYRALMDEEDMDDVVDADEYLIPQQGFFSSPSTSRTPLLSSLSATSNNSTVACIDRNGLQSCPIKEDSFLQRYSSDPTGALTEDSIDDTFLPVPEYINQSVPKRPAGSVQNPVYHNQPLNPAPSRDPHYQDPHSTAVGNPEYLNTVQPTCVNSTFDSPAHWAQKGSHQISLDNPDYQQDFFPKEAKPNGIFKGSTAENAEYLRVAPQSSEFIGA
Chain of EGFR Del19/T790M/C797S (P00533 with tags, fused parts or gaps DEL746-750/T790M/C797S): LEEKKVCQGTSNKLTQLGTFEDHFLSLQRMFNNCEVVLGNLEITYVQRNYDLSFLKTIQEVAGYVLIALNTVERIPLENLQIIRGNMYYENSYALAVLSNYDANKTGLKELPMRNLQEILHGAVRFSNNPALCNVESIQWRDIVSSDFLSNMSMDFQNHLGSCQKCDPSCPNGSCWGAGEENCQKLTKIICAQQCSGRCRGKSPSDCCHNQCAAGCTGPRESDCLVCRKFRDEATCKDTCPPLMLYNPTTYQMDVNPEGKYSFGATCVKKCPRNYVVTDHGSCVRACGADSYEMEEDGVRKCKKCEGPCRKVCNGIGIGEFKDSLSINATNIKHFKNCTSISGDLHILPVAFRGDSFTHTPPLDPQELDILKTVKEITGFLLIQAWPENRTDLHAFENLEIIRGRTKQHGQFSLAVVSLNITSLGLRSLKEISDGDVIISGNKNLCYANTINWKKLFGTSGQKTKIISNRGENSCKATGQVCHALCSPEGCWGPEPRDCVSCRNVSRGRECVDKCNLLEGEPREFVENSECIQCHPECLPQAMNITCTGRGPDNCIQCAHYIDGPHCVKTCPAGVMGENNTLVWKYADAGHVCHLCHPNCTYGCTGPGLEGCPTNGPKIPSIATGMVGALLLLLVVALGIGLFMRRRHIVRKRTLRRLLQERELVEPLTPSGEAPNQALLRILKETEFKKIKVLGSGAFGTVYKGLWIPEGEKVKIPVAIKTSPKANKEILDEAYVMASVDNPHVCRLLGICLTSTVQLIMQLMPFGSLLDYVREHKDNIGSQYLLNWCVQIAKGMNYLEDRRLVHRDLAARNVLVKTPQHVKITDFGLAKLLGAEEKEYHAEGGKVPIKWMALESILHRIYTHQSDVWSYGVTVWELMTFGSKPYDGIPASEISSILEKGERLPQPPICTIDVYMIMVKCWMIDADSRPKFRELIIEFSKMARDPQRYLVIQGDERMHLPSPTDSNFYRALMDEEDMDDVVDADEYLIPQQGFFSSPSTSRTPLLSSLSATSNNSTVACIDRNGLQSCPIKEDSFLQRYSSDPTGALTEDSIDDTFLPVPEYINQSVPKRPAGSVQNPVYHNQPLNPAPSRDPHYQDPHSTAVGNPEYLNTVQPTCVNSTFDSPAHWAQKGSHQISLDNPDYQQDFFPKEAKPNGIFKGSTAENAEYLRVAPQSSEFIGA

CN(C)C[C@H]1CC[C@@H](Nc2cc(Nc3ccnc(-c4cnn(S(=O)(=O)C5CC5)c4)n3)ncc2C#Cc2cnn(C)c2)CC1 [Example 312, N^2-(2-(1-(Cyclopropylsulfonyl)-1H-pyrazol-4-yl)pyrimidin-4-yl)-N^4-((1s,4s)-4-((dimethylamino)methyl)cyclohexyl)-5-((1-methyl-1H-pyrazol-4-yl)ethynyl)pyridine-2,4-diamine]
IC50 [1, 6]: 0.3 nM | IC50 [1, 7]: 0.3 nM | IC50 [2, 8]: 9.6 nM | IC50 ([2]; IC50 WT (nM), 100 μM ATP): 6180 nM | IC50 [3, 9]: 1.1 nM | IC50 [3, 10]: 2.4 nM | IC50 [4, 11]: 0.1 nM | IC50 [4, 12]: 0.4 nM | IC50 [5, 13]: 1.1 nM | IC50 [5, 14]: 12.2 nM

CN(C)C[C@H]1CC[C@@H](Nc2cc(Nc3ccnc(-c4cnn(S(=O)(=O)C5CC5)c4)n3)ncc2C#Cc2cnn(C3CC3)c2)CC1 [Example 313, 5-((1-Cyclopropyl-1H-pyrazol-4-yl)ethynyl)-N^2-(2-(1-(cyclopropylsulfonyl)-1H-pyrazol-4-yl)pyrimidin-4-yl)-N^4-((1s,4s)-4-((dimethylamino)methyl)cyclohexyl)pyridine-2,4-diamine]
IC50 [1, 6]: 0.3 nM | IC50 [1, 7]: 0.4 nM | IC50 [2, 8]: 10.7 nM | IC50 ([2]; IC50 WT (nM), 100 μM ATP): 4690 nM | IC50 [3, 9]: 1.2 nM | IC50 [3, 10]: 2 nM | IC50 [4, 11]: 0.1 nM | IC50 [4, 12]: 0.3 nM | IC50 [5, 13]: 0.9 nM | IC50 [5, 14]: 9 nM

CN(C)C[C@H]1CC[C@@H](Nc2cc(Nc3ccnc(-c4cnn(S(=O)(=O)C5CC5)c4)n3)ncc2C#Cc2cnn(C(F)(F)F)c2)CC1 [Example 314, N^2-(2-(1-(Cyclopropylsulfonyl)-1H-pyrazol-4-yl)pyrimidin-4-yl)-N^4-((1s,4s)-4-((dimethylamino)methyl)cyclohexyl)-5-((1-(trifluoromethyl)-1H-pyrazol-4-yl)ethynyl)pyridine-2,4-diamine]
IC50 [1, 6]: 0.7 nM | IC50 [1, 7]: 0.9 nM | IC50 [2, 8]: 52.6 nM | IC50 ([2]; IC50 WT (nM), 100 μM ATP): > 10000 nM | IC50 [3, 9]: 5.4 nM | IC50 [3, 10]: 9.9 nM | IC50 [4, 11]: 0.2 nM | IC50 [4, 12]: 0.2 nM | IC50 [5, 13]: 3.4 nM | IC50 [5, 14]: 78.4 nM

CN(C)CC1(O)CCN(c2cc(Nc3ccnc(-c4cnn(S(=O)(=O)C5CC5)c4)n3)ncc2C#Cc2cnn(C)c2)CC1 [Example 315, 1-(2-((2-(1-(Cyclopropylsulfonyl)-1H-pyrazol-4-yl)pyrimidin-4-yl)amino)-5-((1-methyl-1H-pyrazol-4-yl)ethynyl)pyridin-4-yl)-4-((dimethylamino)methyl)piperidin-4-ol]
IC50 [1, 7]: 3.7 nM | IC50 ([2]; IC50 WT (nM), 100 μM ATP): > 10000 nM | IC50 [3, 10]: 52.2 nM | IC50 [4, 12]: 6.8 nM | IC50 [5, 14]: 78.6 nM

CN(C)CC1(O)CCN(c2cc(Nc3ccnc(-c4cnn(S(=O)(=O)C5CC5)c4)n3)ncc2C#Cc2cnn(C3CC3)c2)CC1 [Example 316, 1-(5-((1-Cyclopropyl-1H-pyrazol-4-yl)ethynyl)-2-((2-(1-(cyclopropylsulfonyl)-1H-pyrazol-4-yl)pyrimidin-4-yl)amino)pyridin-4-yl)-4-((dimethylamino)methyl)piperidin-4-ol]
IC50 [1, 7]: 4.7 nM | IC50 ([2]; IC50 WT (nM), 100 μM ATP): > 10000 nM | IC50 [3, 10]: 56.7 nM | IC50 [4, 12]: 5.8 nM | IC50 [5, 14]: 72.8 nM

CN(C)CC1(O)CCN(c2cc(Nc3ccnc(-c4cnn(S(=O)(=O)C5CC5)c4)n3)ncc2C#Cc2cnn(C(F)(F)F)c2)CC1 [Example 317, 1-(2-((2-(1-(Cyclopropylsulfonyl)-1H-pyrazol-4-yl)pyrimidin-4-yl)amino)-5-((1-(trifluoromethyl)-1H-pyrazol-4-yl)ethynyl)pyridin-4-yl)-4-((dimethylamino)methyl)piperidin-4-ol]
IC50 [1, 7]: 16.2 nM | IC50 ([2]; IC50 WT (nM), 100 μM ATP): > 10000 nM | IC50 [3, 10]: 245 nM | IC50 [4, 12]: 35.1 nM | IC50 [5, 14]: 334 nM

CN1CCC2(CC1)CCN(c1cc(Nc3ccnc(-c4cnn(S(=O)(=O)C5CC5)c4)n3)ncc1C#Cc1cnn(C)c1)CC2 [Example 318, 2-(1-(Cyclopropylsulfonyl)-1H-pyrazol-4-yl)-N-(5-((1-methyl-1H-pyrazol-4-yl)ethynyl)-4-(9-methyl-3,9-diazaspiro[5.5]undecan-3-yl)pyridin-2-yl)pyrimidin-4-amine]
IC50 [1, 7]: 0.3 nM | IC50 ([2]; IC50 WT (nM), 100 μM ATP): 5990 nM | IC50 [3, 10]: 4.2 nM | IC50 [4, 12]: 0.4 nM | IC50 [5, 14]: 18.4 nM
